Test results from PubChem BioAssay (NCI).
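Assay format: 96-well plates, 48-hour exposure. Here, GI50 denotes the concentration required for 50% inhibition of growth. TGI marks complete inhibition of growth.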

Experiments:
Assay in all cases: NCI-60 cell line screen, 48 h
MDA-N = tested on: MDA-N
SNB-78 CNS = tested on: SNB-78 CNS
M19-MEL melanoma = tested on: M19-MEL melanoma
LXFL 529 NSCLC = tested on: LXFL 529 NSCLC
DMS 114 small cell lung = tested on: DMS 114 small cell lung
DMS 273 small cell lung = tested on: DMS 273 small cell lung
HOP-18 NSCLC = tested on: HOP-18 NSCLC
RXF-631 renal = tested on: RXF-631 renal
XF 498 CNS = tested on: XF 498 CNS

| Structure (SMILES) | TGI (MDA-N) | TGI (SNB-78 CNS) | TGI (M19-MEL melanoma) | TGI (LXFL 529 NSCLC) | TGI (DMS 114 small cell lung) | TGI (DMS 273 small cell lung) | TGI (RXF-631 renal) | also measured |
| --- | --- | --- | --- | --- | --- | --- | --- | --- |
| CC(C)=CCC/C(C)=C/CC/C(C)=C/CSc1ccccc1C(=O)O | 57.8 µM | – | – | – | – | – | – | – |
| C/C(CC(=O)Nc1ccc(C)c(C)c1)=N\NC(N)=O | – | > 100 µM | > 100 µM | > 100 µM | > 100 µM | – | – | – |
| COc1c2ccoc2c(OC)c2oc(=O)ccc12 | > 100 µM | – | – | – | – | – | – | – |
| O=[P+](O)c1ccsc1 | – | – | > 100 µM | > 100 µM | > 100 µM | > 100 µM | > 100 µM | TGI (HOP-18 NSCLC): > 100 µM |
| CC(C)O/N=C/c1cc(NC(=S)OC(C)C)ccc1Cl | > 100 µM | – | – | – | – | – | – | – |
| CC(Nc1ccc(S(=O)(=O)N=C(N)N)cc1)c1c2ccccc2nc2ccccc12 (centres undefined) | – | – | > 100 µM | 80.6 µM | > 100 µM | > 100 µM | 96.6 µM | TGI (XF 498 CNS): 36.1 µM |
| COC(=O)C(C(=O)C(=O)Nc1ccc([N+](=O)[O-])cc1[N+](=O)[O-])c1nc2ccc(Cl)cc2[nH]c1=O (centres undefined) | – | > 100 µM | > 100 µM | – | > 100 µM | > 100 µM | – | TGI (XF 498 CNS): > 100 µM; TGI (HOP-18 NSCLC): > 100 µM |
| NCC1OC(n2cnc3c(N)ncnc32)CC1O (centres undefined) | > 100 µM | – | – | – | – | – | – | – |
| O=c1c(Br)cc2nc3ccccc3sc-2c1Br | – | > 100 µM | 32.4 µM | > 100 µM | 34.6 µM | > 100 µM | > 100 µM | TGI (XF 498 CNS): 61.8 µM |
| Cn1cnc([N+](=O)[O-])c1Sc1nc(N)nc2c1ncn2C1CC(O)C(CO)O1 (centres undefined) | > 100 µM | – | – | – | – | – | – | – |
| CC(=O)OC(C)(C)/C(C)=C/C(=O)O[C@H]1C(=O)O[C@@H]2C[C@H]3[C@H](C)C(=O)C(O[C@@H]4O[C@H](CO)[C@@H](O)[C@H](O)[C@H]4O)=C[C@]3(C)[C@H]3[C@@H](O)[C@H](O)[C@@]4(C(=O)O)OC[C@]32[C@@H]14 | > 100 µM | – | – | – | – | – | – | GI50 (MDA-N): > 100 µM |
| O=C(O)CCC(N=Cc1nc(-c2ccccc2)oc1O)C(=O)O (centres undefined) | – | > 100 µM | > 100 µM | > 100 µM | > 100 µM | > 100 µM | > 100 µM | TGI (HOP-18 NSCLC): > 100 µM |
| CC1CCCC(C(O)CC2CC(=O)NC(=O)C2)C1O (centres undefined) | > 100 µM | – | – | – | – | – | – | – |
